Test results as given in ChEMBL document CHEMBL3352655, “Synthesis and biological evaluation of norcantharidin derivatives as protein phosphatase-1 inhibitors” (Bioorg Med Chem Lett, 2015).
Calls of active or inactive are those of the source. The calls are words filed in the database; no cut-off is given here.

Columns and labels:
A549 = experiment: Cytotoxicity against human A549 cells after 48 hrs by MTT assay; assay type: functional, cell-based; conditions: A549, 48 h
[1] = Partition coefficient, log P of the compound; assay type: physicochemical; conditions: octanol/water
HeLa [2] = experiment: Cytotoxicity against human HeLa cells after 48 hrs by MTT assay; assay type: functional, cell-based
[3] = Cytotoxicity against human HCT8 cells after 48 hrs by MTT assay; assay type: functional, cell-based; conditions: HCT-8, 48 h
[4] = Cytotoxicity against human WI38 cells after 48 hrs by MTT assay; assay type: cell-based; conditions: WI-38, 48 h
HepG2 = experiment: Cytotoxicity against human HepG2 cells after 48 hrs by MTT assay; assay type: functional, cell-based; conditions: HepG2, 48 h
[5] = (§1) Inhibition of protein phosphatase-1 (unknown origin) using phosphopeptide (Lys-Arg-pThr-Ile-Arg) substrate incubated for 60 mins by colorimetric analysis based serine/threonine assay; parameters: species or system Homo sapiens
HeLa [6] = experiment: Inhibition of microtubule formation in human HeLa cells at 5 uM after 24 hrs by DAPI staining based immunofluorescence assay; assay type: functional, cell-based
HeLa [7] = experiment: Induction of nuclear fragmentation in human HeLa cells at 5 uM after 24 hrs by DAPI staining based immunofluorescence assay; assay type: functional, cell-based
Calf thymus DNA = experiment: Binding affinity to calf thymus DNA assessed as reduction in fluorescence intensity of compound-DNA complex at 1 uM by fluorescence spectroscopy; assay type: nucleic-acid assay; conditions: Bos taurus
HeLa [8] = experiment: Induction of cell shrinkage in human HeLa cells at 5 uM after 24 hrs by DAPI staining based immunofluorescence assay; assay type: functional
HeLa [9] = experiment: Induction of nuclear condensation in human HeLa cells at 5 uM after 24 hrs by DAPI staining based immunofluorescence assay; assay type: functional, cell-based
Homo sapiens = organism: Homo sapiens; experiment: as §1

| SMILES | logP [1] | IC50 [5] [µM] | Activity (Calf thymus DNA) | inhibition (Homo sapiens) | IC50 (A549) [µM] | IC50 (HeLa [2]) [µM] | IC50 [3] [µM] | IC50 [4] [µM] | IC50 (HepG2) [µM] | inhibition (HeLa [6]) | Activity (HeLa [7]) | Activity (HeLa [8]) | Activity (HeLa [9]) |
| --- | --- | --- | --- | --- | --- | --- | --- | --- | --- | --- | --- | --- | --- |
| O=C1OC(=O)C2C3CCC(O3)C12 (stereo not given) [DEMETHYL-CANTHARIDIN] | 0.7 | 2.6 | – | – | 12.1 | 12.4 | 28.4 | 26.7 | 24.7 | – | – | – | – |
| CCOC(=O)Cc1csc(NC(=O)C2C(C(=O)O)[C@H]3CC[C@@H]2O3)n1 (stereo not given in full) | 0.8 | – | – | – | > 100 | > 100 | > 100 | > 100 | > 100 | – | – | – | – |
| O=C(Nc1ccc(S(=O)(=O)N2CCN(c3ccc(F)cc3)CC2)cc1)C1C(C(=O)O)[C@H]2CC[C@@H]1O2 (single isomer, unassigned) | 0.6 | 0.2 | Active | Dose-dependent effect | 18.4 | 6.3 | 16.6 | 50.2 | 14.4 | Active | Active | Active | Active |
| O=C1[C@@H]2[C@H](C(=O)N1c1ccc(S(=O)(=O)N3CCN(c4ccc(F)cc4)CC3)cc1)[C@@H]1CC[C@H]2O1 | 1.4 | 2.3 | – | – | 25.8 | 18.6 | 32.1 | 51.8 | 25.6 | – | – | – | – |
| O=C(Nc1ccc(S(=O)(=O)NC2CCCCC2)cc1)C1C(C(=O)O)[C@H]2CC[C@@H]1O2 (stereo not given in full) | 0.2 | – | – | – | 36.2 | 18.7 | 31 | 62.5 | 22.5 | – | – | – | – |
| O=C1[C@@H]2[C@H](C(=O)N1c1ccc(S(=O)(=O)N3CCOCC3)cc1)[C@@H]1CC[C@H]2O1 | 0.9 | – | – | – | 39.2 | 16.3 | 43.5 | 52.1 | 28.7 | – | – | – | – |
| O=C(Nc1ccc(S(=O)(=O)NC2CCCC2)cc1)C1C(C(=O)O)[C@H]2CC[C@@H]1O2 (stereo not given in full) | 0.2 | – | – | – | 20.1 | 17.6 | 30.2 | 59 | 22.3 | – | – | – | – |

Further lines, with some results ahead:

| logP [1] | IC50 [5] [µM] | Activity (Calf thymus DNA) | inhibition (Homo sapiens) | SMILES | IC50 (A549) [µM] | IC50 (HeLa [2]) [µM] | IC50 [3] [µM] | IC50 [4] [µM] | IC50 (HepG2) [µM] | inhibition (HeLa [6]) | Activity (HeLa [7]) | Activity (HeLa [8]) | Activity (HeLa [9]) |
| --- | --- | --- | --- | --- | --- | --- | --- | --- | --- | --- | --- | --- | --- |
| 1.1 | – | – | – | O=C1[C@@H]2[C@H](C(=O)N1c1ccc(S(=O)(=O)NC3CCCC3)cc1)[C@@H]1CC[C@H]2O1 | 32.5 | 20.7 | 32.8 | 40.3 | 23.5 | – | – | – | – |
| 0.4 | – | – | – | CCN1CCN(S(=O)(=O)c2ccc(NC(=O)C3C(C(=O)O)[C@H]4CC[C@@H]3O4)cc2)CC1 (stereo not given in full) | 28.4 | 15.7 | 27.4 | 73.1 | 20.2 | – | – | – | – |
| 0.2 | – | – | – | O=C(Nc1ccc(S(=O)(=O)NC2CC2)cc1)C1C(C(=O)O)[C@H]2CC[C@@H]1O2 (stereo not given in full) | 34.3 | 20.9 | 28.3 | 52.1 | 26.2 | – | – | – | – |
| 0.4 | – | – | – | O=C(Nc1ccc(S(=O)(=O)N2CCOCC2)cc1)C1C(C(=O)O)[C@H]2CC[C@@H]1O2 (stereo not given in full) | 24.2 | 17.2 | 31.3 | 48.8 | 19.3 | – | – | – | – |
